Format in all cases: functional
The test system of assay [1] is Candida albicans. As to the kind of experiment: Antifungal activity against Candida albicans assessed as growth inhibition at 50 ug/mL after 24 hr by cup-plate method. As to conditions: read-out: DIZ.
Assay [2] concerns Aspergillus niger. As to the kind of experiment: Antifungal activity against Aspergillus niger assessed as growth inhibition at 100 ug/mL after 24 hr by cup-plate method. As to conditions: read-out: DIZ.
Assay [3] relates to Aspergillus niger. As to the kind of experiment: Antifungal activity against Aspergillus niger assessed as growth inhibition at 50 ug/mL after 24 hr by cup-plate method. As to conditions: read-out: DIZ.
The subject of assay [4] is Candida albicans. As to the kind of experiment: Antifungal activity against Candida albicans assessed as growth inhibition at 100 ug/mL after 24 hr by cup-plate method. As to conditions: read-out: DIZ.
The subject of assay [5] is Staphylococcus aureus. As to the kind of experiment: Antibacterial activity against Staphylococcus aureus assessed as growth inhibition at 50 ug/mL after 24 to 48 hr by cup-plate method. As to conditions: read-out: DIZ.
Assay [6] has as its system Rattus norvegicus. The assay can be described thus: Anti-inflammatory activity in Wistar albino Rattus norvegicus (rat) assessed as inhibition of carrageenan-induced paw edema at 10 mg/kg, po administered 30 min prior to carrageenan challenge measured after 2 hr by plethysmometric analysis relative to untreated control.
The test system of assay [7] is Rattus norvegicus. The assay can be described thus: Anti-inflammatory activity in Wistar albino Rattus norvegicus (rat) assessed as inhibition of carrageenan-induced paw edema at 10 mg/kg, po administered 30 min prior to carrageenan challenge measured after 3 hr by plethysmometric analysis relative to untreated control. On the technique in general: Carrageenan injected into the paw causes an acute inflammation.

Assay [8] deals with Rattus norvegicus. As to the kind of experiment: Anti-inflammatory activity in Wistar albino Rattus norvegicus (rat) assessed as inhibition of carrageenan-induced paw edema at 10 mg/kg, po administered 30 min prior to carrageenan challenge measured after 1.5 hr by plethysmometric analysis relative to untreated control.
The subject of assay [9] is Staphylococcus aureus. The assay can be described thus: Antibacterial activity against Staphylococcus aureus assessed as growth inhibition at 100 ug/mL after 24 to 48 hr by cup-plate method. As to conditions: read-out: DIZ.
Assay [10] concerns Pseudomonas aeruginosa. The assay can be described thus: Antibacterial activity against Pseudomonas aeruginosa assessed as growth inhibition at 50 ug/mL after 24 to 48 hr by cup-plate method. As to conditions: read-out: DIZ.
For assay [11], the system named is Mus musculus. As to the kind of experiment: Analgesic activity in Swiss albino Mus musculus (mouse) assessed as latency time of heat-induced paw licking/jumping behaviour at 10 mg/kg after 1 hr by Eddy's hot plate method (reference value: 4.74 +/- 0.21 secs). Background: In hot-plate and tail-flick tests a longer latency is read as antinociception.
Assay [12] has as its system Bacillus subtilis. As to the kind of experiment: Antibacterial activity against Bacillus subtilis assessed as growth inhibition at 100 ug/mL after 24 to 48 hr by cup-plate method. As to conditions: read-out: DIZ.
For assay [13], the system named is Mus musculus. The assay can be described thus: Analgesic activity in Swiss albino Mus musculus (mouse) assessed as latency time of heat-induced paw licking/jumping behaviour at 10 mg/kg after 4 hr by Eddy's hot plate method (reference value: 4.57 +/- 0.11 secs).
The test system of assay [14] is Rattus norvegicus. The assay can be described thus: Anti-inflammatory activity in Wistar albino Rattus norvegicus (rat) assessed as inhibition of carrageenan-induced paw edema at 10 mg/kg, po administered 30 min prior to carrageenan challenge measured after 0.5 hr by plethysmometric analysis relative to untreated control.
For assay [15], the system named is Escherichia coli. The assay can be described thus: Antibacterial activity against Escherichia coli assessed as growth inhibition at 50 ug/mL after 24 to 48 hr by cup-plate method. As to conditions: read-out: DIZ.
For assay [16], the system named is Mus musculus. As to the kind of experiment: Analgesic activity in Swiss albino Mus musculus (mouse) assessed as latency time of heat-induced paw licking/jumping behaviour at 10 mg/kg after 2 hr by Eddy's hot plate method (reference value: 4.86 +/- 0.18 secs).
The subject of assay [17] is Bacillus subtilis. The assay can be described thus: Antibacterial activity against Bacillus subtilis assessed as growth inhibition at 50 ug/mL after 24 to 48 hr by cup-plate method. As to conditions: read-out: DIZ.
Assay [18] has as its system Escherichia coli. The assay can be described thus: Antibacterial activity against Escherichia coli assessed as growth inhibition at 100 ug/mL after 24 to 48 hr by cup-plate method. As to conditions: read-out: DIZ.
In assay [19] the test system is Pseudomonas aeruginosa. As to the kind of experiment: Antibacterial activity against Pseudomonas aeruginosa assessed as growth inhibition at 100 ug/mL after 24 to 48 hr by cup-plate method. As to conditions: read-out: DIZ.
Assay [20] relates to Rattus norvegicus. The assay can be described thus: Anti-inflammatory activity in Wistar albino Rattus norvegicus (rat) assessed as inhibition of carrageenan-induced paw edema at 10 mg/kg, po administered 30 min prior to carrageenan challenge measured after 1 hr by plethysmometric analysis relative to untreated control.
Assay [21] relates to Mus musculus. As to the kind of experiment: Analgesic activity in Swiss albino Mus musculus (mouse) assessed as latency time of heat-induced paw licking/jumping behaviour at 10 mg/kg after 0.5 hr by Eddy's hot plate method (reference value: 4.17 +/- 0.04 secs).

Take `COC1=CC(=O)C[C@@H](C)[C@]12Oc1c(Cl)c(OC)cc(OC)c1C2=O` [GRISEOFULVIN]: the figures for the zone of inhibition at 50 µg/mL in assay [1] and in assay [3] were 20 mm and 22 mm, respectively. The zone of inhibition at 100 µg/mL in [2] came to 37 mm; in [4] it was 35 mm.
Regarding `COc1ccc(F)cc1-c1cccc(-c2nn(CCOS(=O)(=O)c3ccc(F)c(Cl)c3)c(=O)o2)c1`, the zone of inhibition at 50 µg/mL came to 13 mm in assay [5]; 17 mm in [10]; 8 mm in assay [1]; 13 mm in [15]; 20 mm in assay [17]; 9 mm in assay [3]. In addition, the inhibition in vivo (in general, the change of the read-out against control, counted positive when it falls) at 10 mg/kg came out at 62% in assay [6]; 65% in assay [7]; 55% in [8]; 23% in assay [14]; 42% in assay [20]. The zone of inhibition at 100 µg/mL in assay [9] amounted to 20 mm; in assay [12], 22 mm; in [2], 11 mm; in assay [18] it was 19 mm; in [19], 18 mm; in assay [4], 7 mm. For the same molecule, the Time turned out to be 4.69 s in assay [11], 5.47 s in assay [13], 5.87 s in assay [16] and 4.62 s in assay [21].
As for `COc1ccc(F)cc1-c1cccc(-c2nn(CCOS(=O)(=O)c3ccc(F)cc3)c(=O)o2)c1`, the zone of inhibition at 50 µg/mL is 15 mm in assay [5]; 10 mm in [10]; 5 mm in assay [1]; 12 mm in [15]; 15 mm in assay [17]; 5 mm in assay [3]. Also, the inhibition in vivo at 10 mg/kg in [6] stood at 63%; in assay [7], 67%; in assay [8] it was 50%; in assay [14], 24%; in [20], 40%. Further, the zone of inhibition at 100 µg/mL in assay [9] worked out at 21 mm; in assay [12], 20 mm; in assay [2] it was 9 mm; in assay [18], 16 mm; in assay [19], 15 mm; in assay [4] it was 6 mm. The Time in assay [11] is reported as 5.01 s; in assay [13], 6.01 s; in assay [16], 6.17 s; in assay [21], 4.91 s.
Regarding `COc1ccc(F)cc1-c1cccc(-c2nn(CCCN3C(=O)c4ccccc4C3=O)c(=O)o2)c1`, the zone of inhibition at 50 µg/mL in assay [5] was 10 mm; in [10], 13 mm; in assay [1], 6 mm; in assay [15], 15 mm; in [17] it was 13 mm; in assay [3] it was 7 mm. Moreover, the inhibition in vivo at 10 mg/kg in [6] was found to be 61%; in assay [7] it was 64%; in [8], 49%; in [14], 19%; in assay [20] it was 30%. Further, the zone of inhibition at 100 µg/mL in assay [9] was found to be 16 mm; in assay [12], 18 mm; in assay [2] it was 10 mm; in assay [18] it was 18 mm; in [19], 19 mm; in [4], 10 mm. The Time came to 4.11 s in assay [11], 4.01 s in [13], 4.01 s in [16] and 4.75 s in [21].
As for `COC(=O)CCCn1nc(-c2cccc(-c3cc(F)ccc3OC)c2)oc1=O`, the zone of inhibition at 50 µg/mL was determined as 11 mm in assay [5]; 11 mm in assay [10]; 11 mm in assay [1]; 10 mm in assay [15]; 10 mm in assay [17]; 11 mm in assay [3]. Besides, the inhibition in vivo at 10 mg/kg in assay [6] amounted to 74%; in assay [7], 87%; in assay [8], 61%; in assay [14], 31%; in assay [20] it was 45%. Further, the zone of inhibition at 100 µg/mL was determined as 18 mm in assay [9]; 13 mm in assay [12]; 16 mm in assay [2]; 18 mm in [18]; 14 mm in assay [19]; 17 mm in assay [4]. For the same molecule, the Time in assay [11] was 5.84 s; in [13], 7.28 s; in [16] it was 7.81 s; in assay [21], 5.51 s.
On to `CN[C@@H]1[C@H](O[C@H]2[C@H](O[C@H]3[C@H](O)[C@@H](O)[C@H](N=C(N)N)[C@@H](O)[C@@H]3N=C(N)N)O[C@@H](C)[C@]2(O)C=O)O[C@@H](CO)[C@H](O)[C@H]1O` [STREPTOMYCIN], for which the zone of inhibition at 50 µg/mL in [10] and in [15] was 21 mm in each case. For the same molecule, the zone of inhibition at 100 µg/mL in assay [18] and in assay [19] was 25 mm each time.
As for `O=C(O)Cc1ccccc1Nc1c(Cl)cccc1Cl` [DICLOFENAC SODIUM], the inhibition in vivo at 10 mg/kg in [6] amounted to 77%; in assay [7] it was 90%; in [8], 65%; in assay [14], 35%; in assay [20], 49%.
Regarding `COc1ccc(F)cc1-c1cccc(-c2nn(CCCCF)c(=O)o2)c1`, the zone of inhibition at 50 µg/mL is 19 mm in assay [5]; 18 mm in [10]; 8 mm in [1]; 17 mm in assay [15]; 20 mm in assay [17]; 9 mm in assay [3]. Besides, the inhibition in vivo at 10 mg/kg is 83% in [6]; 95% in assay [7]; 67% in [8]; 36% in assay [14]; 51% in assay [20]. Besides, the zone of inhibition at 100 µg/mL in assay [9] turned out to be 25 mm; in assay [12], 24 mm; in assay [2], 10 mm; in assay [18] it was 20 mm; in assay [19], 21 mm; in [4] it was 11 mm. The Time turned out to be 5.24 s in [11], 7.04 s in assay [13], 7.88 s in assay [16] and 5.55 s in assay [21].
`COc1ccc(F)cc1-c1cccc(-c2n[nH]c(=O)o2)c1`: the zone of inhibition at 50 µg/mL amounted to 9 mm in assay [5]; 10 mm in assay [10]; 12 mm in [1]; 8 mm in assay [15]; 8 mm in [17]; 15 mm in assay [3]. For the same molecule, the inhibition in vivo at 10 mg/kg in [6] was 56%; in assay [7], 71%; in assay [8] it was 49%; in assay [14], 25%; in assay [20], 41%. In addition, the zone of inhibition at 100 µg/mL in assay [9] is 13 mm; in assay [12] it was 12 mm; in assay [2], 28 mm; in assay [18], 14 mm; in assay [19], 13 mm; in assay [4], 21 mm. The Time was 4.74 s in assay [11], 6.35 s in assay [13], 7.41 s in [16] and 4.22 s in [21].
Turning to `CC(C)=CCN1CCC2(C)c3cc(O)ccc3CC1C2C` (stereo not drawn) [PENTAZOCINE], the Time in assay [11] amounted to 5.93 s; in assay [13], 7.85 s; in [16], 8.06 s; in assay [21], 5.58 s.

These data come from ChEMBL document CHEMBL3046957, “Synthesis of new oxadiazole derivatives as anti-inflammatory, analgesic, and antimicrobial agents” (2013).
